Read-outs that look alike come from different tables or passages of the source.
Biological target: T1, human β3 adrenergic receptor (Homo sapiens, UniProt P13945)
T1 construct: expressed in transfected cells; host or cells: Chinese hamster ovary (CHO) cells, stably transfected
Test: Beta-3 agonist in vitro functional assay: cAMP production (LANCE TR-FRET) in CHO cells stably transfected with the cloned β3 receptor
Type: cell-based
Outline: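 CHO cells stably expressing the cloned receptor, in HEPES-buffered HBSS with BSA and 0.6 mM IBMX, 6,000 cells/well, exposed to compound for 30 min at RT. cAMP read by LANCE TR-FRET against a cAMP standard curve. Isoproterenol defines maximal stimulation.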

[1] = Table 4, cAMP, CHO cells, read-out: Human β3 agonist functional activity
[2] = Table 9, Beta-3 agonist in vitro functional assay, read-out: Human β3 agonist functional activity
[3] = Table 8, Beta-3 agonist in vitro functional assay, read-out: Human β3 agonist functional activity
[4] = Table 12, human β3 functional activity given as ranges, read-out: Human β3 agonist functional activity
[5] = Table 10, Beta-3 agonist in vitro functional assay, read-out: Human β3 agonist functional activity
[6] = Table 5, cAMP, CHO cells, read-out: Human β3 agonist functional activity
[7] = given as a range, cAMP, CHO cells, read-out: human β3 functional activity

T1 sequence (P13945 whole entry): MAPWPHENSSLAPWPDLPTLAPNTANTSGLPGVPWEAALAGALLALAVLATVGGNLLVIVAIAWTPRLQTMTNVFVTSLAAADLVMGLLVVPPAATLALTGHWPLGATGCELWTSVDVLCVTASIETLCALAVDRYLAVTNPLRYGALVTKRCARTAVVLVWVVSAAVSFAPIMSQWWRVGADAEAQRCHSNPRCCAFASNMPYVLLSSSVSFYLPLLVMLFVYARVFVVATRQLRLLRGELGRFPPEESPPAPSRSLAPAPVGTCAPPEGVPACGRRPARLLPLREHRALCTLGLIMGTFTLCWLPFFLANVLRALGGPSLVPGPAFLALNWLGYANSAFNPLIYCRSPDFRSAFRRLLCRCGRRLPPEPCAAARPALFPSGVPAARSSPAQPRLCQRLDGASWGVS

CC1(C)CC2(CCCN(C(=O)c3ccc(C[C@@H]4CC[C@H]([C@H](O)c5ccccc5)N4)cc3)C2)C(=O)O1 (stereo partly drawn) [Example 41]
EC50 [1]: 10 to 99.9 nM

O=C(c1ccc(C[C@@H]2CC[C@H]([C@H](O)c3ccccc3)N2)cc1)N1CCN(Cc2ncccc2F)CC1 [Example 418]
EC50 [2]: 10 to 99.9 nM

O=C(c1ccc(C[C@@H]2CC[C@H]([C@H](O)c3ccccc3)N2)cc1)N1CCC2(CCNC2)CC1 [Example 306]
EC50 [3]: 1 to 9.9 nM

CC(c1ncccn1)N1CCN(C(=O)c2ccc(CC3CCC(C(O)c4ccccc4)N3)cc2)CC1 (single isomer, unassigned) [Example 595]
EC50 [4]: 10 to 99.9 nM

CC(C(=O)NC(C)(C)CO)N1CCN(C(=O)c2ccc(C[C@@H]3CC[C@H]([C@H](O)c4ccccc4)N3)cc2)CC1 (stereo partly drawn) [Example 444]
EC50 [5]: 100 to 999 nM

O=C(c1ccc(CC2CCC(C(O)c3ccccc3)N2)cc1)N1CCN(C(c2ccccn2)C2CC2)CC1 (single isomer, unassigned) [Example 590]
EC50 [4]: 1 to 9.9 nM

O=C(c1ccc(C[C@@H]2CC[C@H]([C@H](O)c3ccccc3)N2)cc1)N1CCN(Cc2nc3ccccc3s2)CC1 [Example 404]
EC50 [2]: 10 to 99.9 nM

CCOC(=O)C1CCCN(C(=O)c2ccc(C[C@@H]3CC[C@H]([C@H](O)c4ccccc4)N3)cc2)C1 (stereo partly drawn) [Example 31]
EC50 [1]: 10 to 99.9 nM

O=C(O)c1cc(OC2CCN(C(=O)c3ccc(C[C@@H]4CC[C@H]([C@H](O)c5ccccc5)N4)cc3)CC2)no1 [Example 160]
EC50 [6]: 100 to 999 nM

NC(=O)C1CCN(C(=O)c2ccc(C[C@@H]3CC[C@H]([C@H](O)c4ccccc4)N3)cc2)CC1 [Example 116]
EC50 [6]: 100 to 999 nM

O=C(c1ccc(C[C@@H]2CC[C@H]([C@H](O)c3ccccc3)N2)cc1)N1C[C@@H]2[C@H](C1)[C@H]2c1nnco1 [Example 170]
EC50 [7]: 1 to 9.9 nM

CC(C(=O)NC1CCOCC1)N1CCN(C(=O)c2ccc(C[C@@H]3CC[C@H]([C@H](O)c4ccccc4)N3)cc2)CC1 (stereo partly drawn) [Example 468]
EC50 [5]: 100 to 999 nM

CC(C(=O)N1CCC(F)CC1)N1CCN(C(=O)c2ccc(C[C@@H]3CC[C@H]([C@H](O)c4ccccc4)N3)cc2)CC1 (stereo partly drawn) [Example 491]
EC50 [5]: 10 to 99.9 nM

Cc1nc2c(s1)CCN(C(=O)c1ccc(C[C@@H]3CC[C@H]([C@H](O)c4ccccc4)N3)cc1)C2 [Example 52]
EC50 [1]: 100 to 999 nM

O=C(c1ccc(CC2CCC(C(O)c3ccccc3)N2)cc1)N1CCC2(CC1)CC(C(F)(F)F)OC2=O (single isomer, unassigned) [Example 566]
EC50 [4]: 10 to 99.9 nM

O=C(c1ccc(C[C@@H]2CC[C@H]([C@H](O)c3ccccc3)N2)cc1)N1CCC(c2ncccn2)CC1 [Example 114]
EC50 [6]: 100 to 999 nM

O=C(c1ccc(C[C@@H]2CC[C@H]([C@H](O)c3ccccc3)N2)cc1)N1CCC(N2C(=O)NC3CCCCC32)CC1 (stereo partly drawn) [Example 76]
EC50 [6]: 10 to 99.9 nM

O=C(c1ccc(CC2CCC(C(O)c3ccccc3)N2)cc1)N1CCN(C2CCN(c3ccccc3)C2=O)CC1 (single isomer, unassigned) [Example 605]
EC50 [4]: 1 to 9.9 nM

CC(C(=O)NCc1cnoc1)N1CCN(C(=O)c2ccc(C[C@@H]3CC[C@H]([C@H](O)c4ccccc4)N3)cc2)CC1 (stereo partly drawn) [Example 461]
EC50 [5]: 10 to 99.9 nM

COc1ccc2c(c1)C(=O)CC1(CCN(C(=O)c3ccc(C[C@@H]4CC[C@H]([C@H](O)c5ccccc5)N4)cc3)CC1)S2(=O)=O [Example 339]
EC50 [3]: 1 to 9.9 nM

C[C@@H](c1ccccn1)N1C2CCC1CN(C(=O)c1ccc(C[C@@H]3CC[C@H]([C@H](O)c4ccccc4)N3)cc1)C2 [Example 540]
EC50 (Table 11, cAMP, CHO cells, read-out: Human β3 agonist functional activity): 100 to 999 nM

CC(C(=O)NC1CCOC1)N1CCN(C(=O)c2ccc(C[C@@H]3CC[C@H]([C@H](O)c4ccccc4)N3)cc2)CC1 (stereo partly drawn) [Example 457]
EC50 [5]: 10 to 99.9 nM

Cc1c(CNC(=O)C(C)N2CCN(C(=O)c3ccc(C[C@@H]4CC[C@H]([C@H](O)c5ccccc5)N4)cc3)CC2)cnn1C (stereo partly drawn) [Example 464]
EC50 [5]: 10 to 99.9 nM

COc1ccc(CC2CCN(C(=O)c3ccc(C[C@@H]4CC[C@H]([C@H](O)c5ccccc5)N4)cc3)CC2)cc1F [Example 147]
EC50 [6]: 10 to 99.9 nM

O=C(c1ccc(CC2CCC(C(O)c3ccccc3)N2)cc1)N1CCN(C2CCN(C3CC3)C2=O)CC1 (single isomer, unassigned) [Example 607]
EC50 [4]: 100 to 999 nM

O=C(OCc1ccccc1)N1CC2(C1)CN(C(=O)c1ccc(C[C@@H]3CC[C@H]([C@H](O)c4ccccc4)N3)cc1)C2 [Example 5]
EC50 [1]: 100 to 999 nM

O=C(O)C1C2CN(C(=O)c3ccc(CC4CCC(C(O)c5ccccc5)N4)cc3)CC21 (stereo not drawn) [Example 231]
EC50 (Table 7, cAMP, CHO cells, ranges as given for Tables 6 and 7, read-out: Human β3 agonist functional activity): 100 to 999 nM

O=C(c1ccc(C[C@@H]2CC[C@H]([C@H](O)c3ccccc3)N2)cc1)N1CCN(Cc2ncco2)CC1 [Example 392]
EC50 [2]: 10 to 99.9 nM

O=C(c1ccc(C[C@@H]2CC[C@H]([C@H](O)c3ccccc3)N2)cc1)N1CCC(S(=O)(=O)c2cccc(F)c2)CC1 [Example 130]
EC50 [6]: 1 to 9.9 nM

Cc1cccnc1N1CCN(C(=O)c2ccc(C[C@@H]3CC[C@H]([C@H](O)c4ccccc4)N3)cc2)CC1 [Example 364]
EC50 [2]: 10 to 99.9 nM

O=C(c1ccc(C[C@@H]2CC[C@H]([C@H](O)c3ccccc3)N2)cc1)N1CCCC2(CCCNC2=O)C1 (stereo partly drawn) [Example 39]
EC50 [1]: 100 to 999 nM

O=C1OC2(CCN(C(=O)c3ccc(C[C@@H]4CC[C@H]([C@H](O)c5ccccc5)N4)cc3)CC2)c2scnc21 [Example 289]
EC50 [3]: 10 to 99.9 nM

O=C(c1ccc(C[C@@H]2CC[C@H]([C@H](O)c3ccccc3)N2)cc1)N1CCC(OCc2ccccn2)CC1 [Example 163]
EC50 [6]: 100 to 999 nM

CC(C(=O)N1CCC(C2CC2)CC1)N1CCN(C(=O)c2ccc(C[C@@H]3CC[C@H]([C@H](O)c4ccccc4)N3)cc2)CC1 (stereo partly drawn) [Example 494]
EC50 [5]: 10 to 99.9 nM

O=C(c1ccc(C[C@@H]2CC[C@H]([C@H](O)c3ccccc3)N2)cc1)N1CCC2(CC1)CCN(Cc1ccccc1)C2=O [Example 255]
EC50 [3]: 1 to 9.9 nM

CC(C(=O)N(C)CCO)N1CCN(C(=O)c2ccc(C[C@@H]3CC[C@H]([C@H](O)c4ccccc4)N3)cc2)CC1 (stereo partly drawn) [Example 519]
EC50 [5]: 100 to 999 nM

Cn1ncnc1CN1CCN(C(=O)c2ccc(C[C@@H]3CC[C@H]([C@H](O)c4ccccc4)N3)cc2)CC1 [Example 397]
EC50 [2]: 10 to 99.9 nM

CC(c1ncccc1Cl)N1CCN(C(=O)c2ccc(CC3CCC(C(O)c4ccccc4)N3)cc2)CC1 (single isomer, unassigned) [Example 593]
EC50 [4]: 1 to 9.9 nM

CC(C(=O)N1CCc2ccc(F)cc2C1)N1CCN(C(=O)c2ccc(C[C@@H]3CC[C@H]([C@H](O)c4ccccc4)N3)cc2)CC1 (stereo partly drawn) [Example 509]
EC50 [5]: 1 to 9.9 nM

CC(C(=O)N1CCn2ccnc2C1)N1CCN(C(=O)c2ccc(C[C@@H]3CC[C@H]([C@H](O)c4ccccc4)N3)cc2)CC1 (stereo partly drawn) [Example 502]
EC50 [5]: 10 to 99.9 nM

O=C1OC2(CCN(C(=O)c3ccc(C[C@@H]4CC[C@H]([C@H](O)c5ccccc5)N4)cc3)CC2)c2ncccc21 [Example 287]
EC50 [3]: 10 to 99.9 nM

CC(C(=O)N(C)C)N1CCN(C(=O)c2ccc(C[C@@H]3CC[C@H]([C@H](O)c4ccccc4)N3)cc2)CC1 (stereo partly drawn) [Example 513]
EC50 [5]: 1 to 9.9 nM

CC(C(=O)N(C)C(C)(C)C)N1CCN(C(=O)c2ccc(C[C@@H]3CC[C@H]([C@H](O)c4ccccc4)N3)cc2)CC1 (stereo partly drawn) [Example 517]
EC50 [5]: 100 to 999 nM

O=C(c1ccc(C[C@@H]2CC[C@H]([C@H](O)c3ccccc3)N2)cc1)N1CCc2oncc2C1 [Example 55]
EC50 [1]: 100 to 999 nM

O=C(c1ccc(C[C@@H]2CC[C@H]([C@H](O)c3ccccc3)N2)cc1)N1CCC(C(O)c2ccccn2)CC1 (stereo partly drawn) [Example 168]
EC50 [6]: 10 to 99.9 nM

CC(C(=O)NC1(c2ccccn2)CC1)N1CCN(C(=O)c2ccc(C[C@@H]3CC[C@H]([C@H](O)c4ccccc4)N3)cc2)CC1 (stereo partly drawn) [Example 470]
EC50 [5]: 10 to 99.9 nM

CC(C(=O)O)N1CCN(C(=O)c2ccc(C[C@@H]3CC[C@H]([C@H](O)c4ccccc4)N3)cc2)CC1 (stereo partly drawn) [Example 433]
EC50 [5]: 1 to 9.9 nM

C[C@@H]1CN(C(=O)c2ccc(C[C@@H]3CC[C@H]([C@H](O)c4ccccc4)N3)cc2)CC[C@H]1n1cccn1 [Example 61]
EC50 [1]: 100 to 999 nM

COC(=O)COc1cccnc1N1CCN(C(=O)c2ccc(C[C@@H]3CC[C@H]([C@H](O)c4ccccc4)N3)cc2)CC1 [Example 368]
EC50 [2]: 10 to 99.9 nM

CC(c1ncccn1)N1CCN(C(=O)c2ccc(CC3CCC(C(O)c4ccccc4)N3)cc2)CC1 (single isomer, unassigned) [Example 596]
EC50 [4]: 10 to 99.9 nM

COc1ccc2c(c1)C(=O)CC1(CCN(C(=O)c3ccc(C[C@@H]4CC[C@H]([C@H](O)c5cccnc5)N4)cc3)CC1)S2 [Example 329]
EC50 [3]: 10 to 99.9 nM

O=C(c1ccc(C[C@@H]2CC[C@H]([C@H](O)c3ccccc3)N2)cc1)N1CCC2(CC1)NC(=O)N(Cc1ccccc1)C2=O [Example 269]
EC50 [3]: 10 to 99.9 nM

O=C(c1ccc(C[C@@H]2CC[C@H]([C@H](O)c3ccccc3)N2)cc1)N1CCC2(CC1)CCN(c1ccccc1)C2=O [Example 254]
EC50 [3]: 100 to 999 nM

O=C(c1ccc(C[C@@H]2CC[C@H]([C@H](O)c3ccccc3)N2)cc1)N1CCC(N2Cc3ccccc3NC2=O)CC1 [Example 72]
EC50 [6]: 100 to 999 nM

CCC(c1ccccn1)N1CCN(C(=O)c2ccc(CC3CCC(C(O)c4ccccc4)N3)cc2)CC1 (single isomer, unassigned) [Example 587]
EC50 [4]: 10 to 99.9 nM

O=C(c1ccc(C[C@@H]2CC[C@H]([C@H](O)c3ccccc3)N2)cc1)N1CCN(Cc2ccon2)CC1 [Example 393]
EC50 [2]: 10 to 99.9 nM

O=C(c1ccc(C[C@@H]2CC[C@H]([C@H](O)c3cccnc3)N2)cc1)N1CCC(n2cccn2)CC1 [Example 65, (R)-[(2R,5S)-5-(4-{[4-(1H-pyrazol-1-yl)-piperidin-1-yl]carbonyl}benzyl)pyrrolidine-2-yl](pyridin-3-yl)methanol]
EC50 [7]: 100 to 999 nM

Source: patent US8354403B2, “Pyrrolidine derived beta 3 adrenergic receptor agonists” (Merck Sharp & Dohme Corp., priority 2009, dated 2013)
